Data on 4 molecules can be found in patent publication US7354728B2, “Coactivation of nuclear receptors” (N.V. Organon, priority 2000, dated 2008).

Assay [1] concerns the target T1, ERβ (Homo sapiens, UniProt Q92731).
T1 construct: expressed in transfected cells; host or cells: U-2 OS
Briefly: Transient transfection of U-2 OS cells with ERβ and ERE luciferase reporter, with or without COASTER. It is filed as cell-based. As to conditions: 10^−8 M ligand, ± SD triplicate. On the procedure:
(§1) To test the functional role of COASTER in a mammalian setting, the full length COASTER (amino acids 1-1013) cDNA was cloned in a mammalian cell expression vector. The functional role of COASTER was analyzed by cotransfection of U-2 OS cells with the COASTER expression plasmid in combination with a steroid receptor expressing plasmid, and a plasmid containing a luciferase reporter gene under control of a hormone responsive element. Following transfection, cells were stimulated with the appropriate hormone for the receptor under study.
(§2) U-2 OS cells were transiently transfected with pNGV1.ERβ and p4ERE-TATA-LUC (1), pNGV1.ERα and p4ERE-TATA-LUC (2), pKCRE.PR and pMMTV-LUC (3) or pNGV1.GR and pMMTV-LUC (4). Where indicated, COASTER expression construct pCDNA3.1HISC.COASTER was added to the transfection mixture. Following transfection, cell were incubated with the hormones indicated in the top row. […] Org 2058=16α-ethyl-21-hydroxy-19-norpregn-4-ene-3,20-dione.
(§3) Initially, a plasmid encoding a truncated form of COASTER (pACT2.COASTERΔ, amino acids 1-234) was isolated in the yeast two hybrid screen. […] The 5′ end of the COASTER (amino acid 1 to 332) was amplified by PCR on human-testis Marathon Ready cDNA (Clontech, Palo Alto, USA, cat.#7414-1) using primers […] […]

Assay [2] addresses ERβ and COASTER (Homo sapiens, UniProt Q92731). Briefly: Yeast two-hybrid assay, β-galactosidase reporter, ERβ with COASTER amino acids 1-234. The class given is cell-based. As to conditions: yeast AH109, pGBT9.ERβ + pACT2.COASTERΔ; 10^−8 M 17β-estradiol, 10^−5 M raloxifen.
For assay [3], the system named is ERα/β chimera.
In assay [4] the target is progesterone receptor (PR) (Homo sapiens, UniProt P06401). Briefly: Transient transfection of U-2 OS cells with PR and pMMTV-LUC reporter, with or without COASTER. It is filed as cell-based. As to conditions: 10^−8 M ligand, ± SD triplicate. The protocol:
as §1, §2, §3

For assay [5], the target named is glucocorticoid receptor, expressed from pNGV1.GR in U-2 OS cells (human) (UniProt P04150). Briefly: cell-based or functional assay.
Sequence of glucocorticoid receptor, expressed from pNGV1.GR in U-2 OS cells (human) (P04150 whole entry): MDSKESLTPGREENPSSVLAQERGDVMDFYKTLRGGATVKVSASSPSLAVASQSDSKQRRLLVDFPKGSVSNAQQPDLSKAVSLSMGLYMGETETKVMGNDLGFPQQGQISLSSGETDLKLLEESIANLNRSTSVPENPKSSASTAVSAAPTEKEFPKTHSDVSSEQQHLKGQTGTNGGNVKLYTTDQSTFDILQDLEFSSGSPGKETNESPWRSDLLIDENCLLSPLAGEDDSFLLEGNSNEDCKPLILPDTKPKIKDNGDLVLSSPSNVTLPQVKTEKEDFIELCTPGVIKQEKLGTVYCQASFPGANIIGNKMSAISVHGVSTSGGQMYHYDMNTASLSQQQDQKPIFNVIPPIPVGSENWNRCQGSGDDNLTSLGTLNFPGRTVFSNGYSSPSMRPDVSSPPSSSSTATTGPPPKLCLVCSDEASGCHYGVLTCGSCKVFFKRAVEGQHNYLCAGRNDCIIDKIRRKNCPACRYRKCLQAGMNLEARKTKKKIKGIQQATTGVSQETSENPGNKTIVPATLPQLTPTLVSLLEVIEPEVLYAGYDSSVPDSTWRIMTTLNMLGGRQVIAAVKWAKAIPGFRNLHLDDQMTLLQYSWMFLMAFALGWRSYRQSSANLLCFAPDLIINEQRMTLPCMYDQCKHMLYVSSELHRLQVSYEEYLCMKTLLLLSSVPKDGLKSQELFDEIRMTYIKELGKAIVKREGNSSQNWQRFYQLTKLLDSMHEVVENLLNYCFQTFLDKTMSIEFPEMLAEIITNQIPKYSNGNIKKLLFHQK
The target in assay [6] is human estrogen receptor β, expressed from pNGV1.ERβ in U-2 OS cells (human) (UniProt Q92731). Briefly: cell-based or functional assay.
Sequence of human estrogen receptor β, expressed from pNGV1.ERβ in U-2 OS cells (human) (Q92731 whole entry): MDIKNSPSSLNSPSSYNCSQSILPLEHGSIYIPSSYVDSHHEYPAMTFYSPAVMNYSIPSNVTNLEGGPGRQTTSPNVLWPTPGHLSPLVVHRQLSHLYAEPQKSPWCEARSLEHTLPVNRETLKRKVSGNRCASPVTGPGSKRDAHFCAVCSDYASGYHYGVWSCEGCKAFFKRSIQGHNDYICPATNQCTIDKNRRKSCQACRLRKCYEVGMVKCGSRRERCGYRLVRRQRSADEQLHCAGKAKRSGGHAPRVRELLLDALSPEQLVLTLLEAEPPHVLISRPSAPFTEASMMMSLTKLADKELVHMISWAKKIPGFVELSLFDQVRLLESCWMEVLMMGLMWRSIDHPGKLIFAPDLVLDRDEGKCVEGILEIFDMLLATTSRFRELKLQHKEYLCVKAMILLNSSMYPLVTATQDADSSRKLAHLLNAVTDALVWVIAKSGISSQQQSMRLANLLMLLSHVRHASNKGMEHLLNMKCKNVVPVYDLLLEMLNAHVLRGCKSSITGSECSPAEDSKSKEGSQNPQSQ
In assay [7] the target is progesterone receptor, expressed from pKCRE.PR in U-2 OS cells. Briefly: cell-based or functional assay.

T1 sequence (Q92731 whole entry): as above
Sequence of progesterone receptor (PR) (P06401 whole entry, species assumed): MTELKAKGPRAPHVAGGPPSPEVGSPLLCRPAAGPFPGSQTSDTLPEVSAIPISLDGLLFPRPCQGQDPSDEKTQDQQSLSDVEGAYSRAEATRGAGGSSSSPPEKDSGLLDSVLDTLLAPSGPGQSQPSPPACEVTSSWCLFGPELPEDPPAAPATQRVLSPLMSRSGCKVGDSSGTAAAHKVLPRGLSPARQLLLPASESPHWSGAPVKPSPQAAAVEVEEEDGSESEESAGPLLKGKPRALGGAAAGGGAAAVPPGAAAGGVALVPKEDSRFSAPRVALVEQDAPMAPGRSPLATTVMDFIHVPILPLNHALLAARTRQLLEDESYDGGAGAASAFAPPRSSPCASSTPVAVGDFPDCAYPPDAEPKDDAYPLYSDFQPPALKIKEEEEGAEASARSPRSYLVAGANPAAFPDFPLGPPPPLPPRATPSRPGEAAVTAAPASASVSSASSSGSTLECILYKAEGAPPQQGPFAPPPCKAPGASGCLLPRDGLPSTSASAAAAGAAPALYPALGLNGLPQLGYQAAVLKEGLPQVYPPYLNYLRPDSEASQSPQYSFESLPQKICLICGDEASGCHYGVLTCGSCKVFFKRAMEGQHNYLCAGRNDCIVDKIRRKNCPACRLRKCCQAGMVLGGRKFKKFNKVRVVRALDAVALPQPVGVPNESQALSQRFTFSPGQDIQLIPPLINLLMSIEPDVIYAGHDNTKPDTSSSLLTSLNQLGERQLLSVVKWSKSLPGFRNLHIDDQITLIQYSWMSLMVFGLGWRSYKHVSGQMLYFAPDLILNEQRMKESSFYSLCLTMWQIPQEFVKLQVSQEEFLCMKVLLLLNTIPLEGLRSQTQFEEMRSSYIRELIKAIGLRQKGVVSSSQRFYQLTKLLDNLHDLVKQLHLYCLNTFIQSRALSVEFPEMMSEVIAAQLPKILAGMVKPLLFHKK
Sequence of ERβ and COASTER (Q92731 whole entry, the tested form may be a part): as the sequence (Q92731 whole entry) above

As for `C[C@]12CC[C@@H]3c4ccc(O)cc4CC[C@H]3[C@@H]1CC[C@@H]2O` [17β-estradiol], the luciferase activity in assay [1] (pNGV1.ERβ + p4ERE-TATA-LUC + COASTER) amounted to 8200 ± 819; in assay [1] (pNGV1.ERβ + p4ERE-TATA-LUC, no COASTER), 500 ± 109. The “β-galactosidase reporter activity (ERβ-COASTER interaction, FIG. 3)” value in assay [2] is “dose-dependent induction”. In addition, the “signalling via the ERα/β chimera” value in assay [3] is “able to signal”.
As for `CC[C@@H]1C[C@H]2[C@@H]3CCC4=CC(=O)CC[C@@H]4[C@H]3CC[C@]2(C)[C@H]1C(=O)CO` [Org 2058, 16α-ethyl-21-hydroxy-19-norpregn-4-ene-3,20-dione], the luciferase activity in assay [4] (pKCRE.PR + pMMTV-LUC + COASTER) is 3229 ± 683; in assay [4] (pKCRE.PR + pMMTV-LUC, no COASTER), 822 ± 112.
Take `O=C(c1ccc(OCCN2CCCCC2)cc1)c1c(-c2ccc(O)cc2)sc2cc(O)ccc12` [raloxifen]: the “signalling via the ERα/β chimera” value in assay [3] is “able to signal”.
In assay [5], “full length COASTER (amino acids 1-1013), expressed from pCDNA3.1HISC.COASTER (from UniProt Q9Y4E5 1-1013)” came in with a luciferase activity, pMMTV-LUC in U-2 OS cells, 10^-8 M Dexamethasone (luciferase activity) of 35200 and a luciferase activity, pMMTV-LUC in U-2 OS cells, no hormone (luciferase activity) of 103. In assay [6], the luciferase activity, p4ERE-TATA-LUC in U-2 OS cells, 10^-8 M 17β-estradiol (luciferase activity) came out at 8200; the luciferase activity, p4ERE-TATA-LUC in U-2 OS cells, 10^-8 M ICI 164,384 (luciferase activity) was determined as 101; the luciferase activity, p4ERE-TATA-LUC in U-2 OS cells, no hormone (luciferase activity) is 133. In assay [7], this molecule yielded a luciferase activity, pMMTV-LUC in U-2 OS cells, 10^-8 M Org 2058 (luciferase activity) of 3230 and a luciferase activity, pMMTV-LUC in U-2 OS cells, no hormone (luciferase activity) of 81.
